Read-outs that look alike come from different tables or passages of the source.

The target in one assay is SHP2 enzyme (Homo sapiens (Human), UniProt Q06124). The experiment in a line: Inhibitory activity against SHP2 enzyme (Caliper conversion rate). In kind it is biochemical. Conditions: read-out: SHP2 Enzyme Inhibition IC50 Value. As for the experimental part: (1) Preparing 1×Reaction Buffer according to the BPS Biosciences' Instructions for Use of the SHP2 enzyme. (2) Preparing a compound concentration gradient: Test the test compound at 10 μM under 3× dilution for 10 concentrations, diluting to a 100% dimethyl sulfoxide solution at a 100× final concentration in a 384-well plate, and diluting the compound with Precision 4× for 10 concentrations. Transferring 250 nL of the compound at the 100× final concentration to a target plate OptiPlate-384F using a dispenser Echo 550. […] (3) Preparing the activation peptide solution at a 5× final concentration with the 1×Reaction Buffer, adding 5 μL of the solution to a reaction plate, respectively, and centrifuging at 1000 rpm for 1 min. (4) Preparing an enzyme solution at a 2.5× final concentration with the 1×Reaction Buffer, adding 10 μL of the solution to the reaction plate, respectively, centrifuging at 1000 rpm for 1 min, and incubating at room temperature for 60 min. (5) Preparing a substrate peptide solution at a 2.5× final concentration with the 1×Reaction Buffer, centrifuging at 1000 rpm for 1 min, and incubating at room temperature for 30 min. (6) Adding 30 μL of stop test solution to stop the reaction, centrifuging at 1000 rpm for […], and mixing well by shaking. (7) Reading the conversion rate with a Caliper EZ Reader. (7) Data analysis:
Wherein: Conversion %/_sample is the reading of a conversion rate of a sample; Conversion %_min: mean of negative control wells, which represents the reading of a conversion rate in absence of enzyme activity wells; Conversion %_max: mean of a ratio of positive control wells, which represents the reading of a conversion rate in absence of compound inhibition wells.

For assay [1], the system named is NCI-H358 tumor cell xenograft. The experiment in a line: Growth inhibition of xenograft in nude mice. In kind it is in vivo. Conditions: 10 mg/kg, orally, once daily, for 21 consecutive days. From the text: (§1) Experimental method: 1) Culturing MV 4-11/KYSE520/NCI-H358 cells in a culture medium containing 10% fetal bovine serum. Harvesting tumor cells at an exponential growth phase, and resuspending in PBS to suitable concentrations for subcutaneous tumor inoculation in nude mice. 2) Subcutaneously inoculating 2-8×10^7 tumor cells at the right back of a mouse, and resuspending the cells in PBS and matrigel (1:1); observing tumor growth regularly, and randomizing mice for administration based on tumor size and mouse body weight when tumors grow to a mean volume of ˜120 mm^3-[…]. 3) Defining the day of tumor cell inoculation as Day 0. Prior to the start of dosing, weighing all animals and measuring the tumor volume with a vernier caliper. 3) Administering orally compound of examples (prepared with water for injection containing 1% Tween80 to a desired concentration for use) at a given dose for three consecutive weeks, and giving an equal amount of solvent animals in a solvent control group. Measuring diameters of the xenograft twice a week throughout the experiment, and weighing the mice were at the same time.
(§2) The calculation formula of tumor volume (TV) is: TV=½×a×b^2, wherein a and b represent length and width, respectively. The relative tumor volume (RTV) is calculated based on the measured results using the formula: RTV=Vt/V0, wherein V0 is the tumor volume measured at the time of dosing in separate cages (i.e., Day 0) and Vt is the tumor volume at each measurement. The anti-tumor activity is evaluated by the following measures: 1) relative tumor proliferation rate T/C (%), which is calculated by the following formula: T/C (%)=(TRTV/CRTV)×100%, wherein TRTV: RTV of ae treatment group; CRTV: RTV of a negative control group; 2) inhibition rate of tumor volume growth GI %, which is calculated by the following formula: GI %=[1−(TVt−TV0)/(CVt−[…])]×100%, wherein TVt is the tumor volume at each measurement in the treatment group; TV0 is the tumor volume obtained at the time of dosing in separate cages in the treatment group; CVt is the tumor volume at each measurement in the control group; CV0 is the tumor volume obtained at the time of dosing in separate cages in the control group (specific data are shown in Table 4).

The next assay relates to MV4-11 leukemia cells. The experiment in a line: Inhibition of proliferation of MV4-11 leukemia cells (CellTiter-Glo, 72 h). In kind it is cell-based. Conditions: read-out: IC50 value, MV4-11 cell proliferation. As to the method:
Specific experimental procedures: 1) At Day 0: Inoculating trypsin-digested cells in 96-well plate and suspending the plate in cell culture medium; measure cell density using an automatic cell counter, diluting the cells with the culture medium to appropriate density, adding 100 μl of cell suspension in the 96-well plate, and incubating a cell-free medium as a control well in a cell incubator with […] at 37° C. overnight; 2) Day 1: Treating test compounds of the cells using a drug for a total of 8 concentrations, and diluting at a 3× concentration, wherein 10 μM is a starting test concentration of the test compounds. […] IC50 values are obtained by a four-parameter regression using software attached to the plate reader (the specific results are shown in Table 2).
On the technique in general: In ATP-based viability assays light output follows the ATP content of the culture.

Assay [2] relates to MV 4-11 tumor cell xenograft. The experiment in a line: Growth inhibition of xenograft in nude mice. Particulars: 30 mg/kg, orally, once daily, for 21 consecutive days. In kind it is in vivo.
Text: as §1, §2

Assay [3] has as its system KYSE520 tumor cell xenograft. The experiment in a line: Growth inhibition of xenograft in nude mice. Conditions: 30 mg/kg, orally, once daily, for 21 consecutive days. Format: in vivo.
Text: as §1, §2

Sequence of SHP2 enzyme (Q06124 whole entry): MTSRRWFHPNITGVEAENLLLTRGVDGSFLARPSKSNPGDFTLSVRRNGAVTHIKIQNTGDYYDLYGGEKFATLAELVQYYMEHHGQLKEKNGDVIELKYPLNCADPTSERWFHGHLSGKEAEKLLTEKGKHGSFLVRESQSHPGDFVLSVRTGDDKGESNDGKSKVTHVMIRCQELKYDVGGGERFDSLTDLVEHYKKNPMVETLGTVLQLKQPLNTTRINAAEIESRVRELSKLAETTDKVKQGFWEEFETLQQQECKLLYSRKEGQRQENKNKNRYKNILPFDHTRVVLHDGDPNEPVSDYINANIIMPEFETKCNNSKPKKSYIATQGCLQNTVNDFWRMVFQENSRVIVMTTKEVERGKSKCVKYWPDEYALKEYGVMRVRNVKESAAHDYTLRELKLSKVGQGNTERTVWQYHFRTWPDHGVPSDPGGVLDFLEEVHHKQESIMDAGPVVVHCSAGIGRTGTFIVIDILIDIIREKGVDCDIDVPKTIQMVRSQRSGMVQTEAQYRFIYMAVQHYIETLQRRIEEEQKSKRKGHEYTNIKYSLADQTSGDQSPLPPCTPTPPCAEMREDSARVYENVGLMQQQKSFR

With `Cc1nc(N2CCC3(CC2)CO[C@@H](C)[C@H]3N)n2ccnc2c1Sc1ccnc(N)c1Cl` [Comparative Compound 3, reference compound], the IC50 was 6.8 nM on SHP2 enzyme and 43 nM in the assay on MV4-11 leukemia cells (Homo sapiens, MV4-11, 72 h). Besides, the T/C in assay [1] stood at 39%.
For the compound `CC1(N)CCN(c2cnc(-c3cccc(Cl)c3Cl)c(N)n2)CC1` [SHP099, reference compound], the T/C in assay [2] was determined as 47%; in assay [3] it was 43%. Further, the IC50 with MV4-11 leukemia cells (72 h) worked out at 1670 nM.
`CC1(N)CCN(c2ncc(-c3cccc(Cl)c3Cl)c3nccn23)CC1` [Comparative Compound 2, 1-(8-(2,3-dichlorophenyl)imidazo [1,2-c]pyrimidin-5-yl)-4-methylpiperidin-4-amine, reference compound]: the IC50 on SHP2 enzyme was 3460 nM; in the assay on MV4-11 leukemia cells (Homo sapiens, MV4-11, 72 h), over 10000 nM.
Consider `Cc1cc(N2CCC3(CC2)Cc2ccccc2[C@H]3N)n2ncnc2c1Sc1ccnc(N)c1Cl` [Example 19, (S)-1′-(8-((2-amino-3-chloropyridin-4-yl)thio)-7-methyl-[1,2,4]triazolo [1,5-a]pyridin-5-yl)-1,3-dihydrospiro [indene-2,4′-piperidine]-1-amine], for which the IC50 at SHP2 enzyme worked out at 29.5 nM; in the assay on MV4-11 leukemia cells (Homo sapiens, MV4-11, 72 h) it was 687 nM.
In the same order, the values of `COc1ccc2c(c1)[C@@H](N)C1(CCN(c3nc(C)c(Sc4ccnc(N)c4Cl)c4nccn34)CC1)C2` [Example 7, (S)-1′-(8-((2-amino-3-chloropyridin-4-yl)thio)-7-methylimidazo [1,2-c]pyrimidin-5-yl)-6-methoxy-1,3-dihydrospiro [indene-2,4′-piperidine]-1-amine] are 2.1 nM and 9.3 nM.

As usually defined, the T/C is the ratio of treated to control.

The record behind these values is patent publication US12281118B2, “Nitrogen-containing fused heterocyclic SHP2 inhibitor compound, preparation method, and use” (SHANGHAI RINGENE BIOPHARMA CO., LTD., priority 2018, dated 2025).
